Columns and labels:
ALDH1A1 = biological target: T1, ALDH1A1 (Homo sapiens, UniProt P00352); assay: Selectivity biochemical assay, NAD(P)H-Glo Detection System
T1 construct: His-tag; made in house; host or cells: E. coli Rosetta (DE3)
T1 sequence (P00352 1-501): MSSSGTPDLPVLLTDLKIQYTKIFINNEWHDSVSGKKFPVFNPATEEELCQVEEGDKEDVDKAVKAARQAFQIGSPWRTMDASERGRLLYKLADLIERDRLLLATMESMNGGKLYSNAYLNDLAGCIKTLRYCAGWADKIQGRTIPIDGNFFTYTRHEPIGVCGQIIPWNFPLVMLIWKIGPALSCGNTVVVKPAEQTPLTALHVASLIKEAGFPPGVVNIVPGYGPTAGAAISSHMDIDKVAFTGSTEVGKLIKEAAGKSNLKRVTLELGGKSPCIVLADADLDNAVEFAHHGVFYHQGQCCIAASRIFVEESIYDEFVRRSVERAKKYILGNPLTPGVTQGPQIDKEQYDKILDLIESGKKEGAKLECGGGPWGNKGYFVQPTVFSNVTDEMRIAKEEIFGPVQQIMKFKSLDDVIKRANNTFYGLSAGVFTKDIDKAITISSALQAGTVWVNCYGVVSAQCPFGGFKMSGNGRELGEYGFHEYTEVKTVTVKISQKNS
Excerpt: (§1) Cloning: Open reading frames corresponding to the protein coding sequences of full length human ALDH1A1 (Uniprot ID P00352), ALDH1A2 (094788) and ALDH1A3 (P47895) were polymerase chain reaction (PCR) amplified from human cDNA and inserted into the multi-cloning sites of the commercially available (Novagen) E. coli expression vectors pET47b (ALDH1A1, EcoRI restriction site; ALDH1A2, BamHI and EcoRI sites) or pET28a (ALDH1A3, NdeI and BamHI sites), using standard molecular genetic techniques. Recombinant DNA products were sequence verified prior to use in expression studies.
(§2) Expression: Expression constructs were transformed into the E. coli strain Rosetta (DE3) (Merck) and individual colonies used to inoculate 10 mL lysogen broth (LB) medium supplemented with kanamycin and chloramphenicol at 50 μg/mL and 34 μg/mL, respectively. Cultures were grown to saturation overnight at 37° C., prior to being used to sub-inoculate fresh 1 L LB medium cultures (plus antibiotics, as before). 1 L cultures were grown at 37° C., 200 rpm, throughout the day until the optical density at 600 nm (OD600) reached ˜0.8, at which point growth temperature was reduced to 18° C. and 1 mM isopropyl β-d-1-thiogalacto pyranoside (IPTG) added to induce protein expression.
(§3) Cultures were left overnight (at least 16 h) under these conditions and the following day harvested by centrifugation (4000 G, 10 minutes). Culture supernatant was discarded and cell pellets stored at −80° C. until further processing.
(§4) Purification: Cell pellets were thawed on ice, re-suspended in Ni Affinity Buffer A (20 mM HEPES pH 7.5, 300 mM NaCl, 20 mM imidazole, 1 mM tris(2-carboxyethyl)phosphine (TCEP)) with protease inhibitors (cOmplete Ultra protease inhibitor, Roche), and lysed by sonication. Lysates were clarified by centrifugation at 18,000 G, 4° C., for 40 minutes, and loaded directly onto a pre-equilibrated (Buffer A) 5 mL HisTrap Fast Flow column (GE Healthcare) by way of an AKTA Fast Protein Liquid Chromatography (FPLC) system. The column was sequentially treated with 6 column volumes (CV) 100% Buffer A, 8 CV of 90% Buffer A:10% Buffer B (20 mM 4-(2-hydroxyethyl)-1-piperazineethanesulfonic acid (HEPES) pH 7.5, 300 mM NaCl, 500 mM imidazole, 1 mM TCEP) and finally a linear gradient from 10-70% Buffer B over 8 CV to elute recombinant His-tagged protein. Relevant fractions (as measured by 280 nm absorbance) collected during elution were pooled and subjected to further purification by size exclusion chromatography (Superdex 200 26/600, GE Healthcare, running buffer 20 mM 2-(carbamoylmethylamino)ethanesulfonic acid (ACES) pH 7.5, 1 mM TCEP). Relevant fractions from this step were pooled, aliquoted, and stored at −80° C. until required for compound profiling assays.
(§5) Materials: ALDH2 was purchased from Abnova. Tris(hydroxymethyl)aminomethane (Tris) was purchased from MP Biomedicals. TCEP, ethylenediaminetetraacetic acid (EDTA), propionaldehyde, DMSO and Tween-20 were purchased from Sigma. Nicotinamide adenine dinucleotide (NAD) was obtained from Abcam. The NAD(P)H-Glo™ Detection System was purchased from Promega. White, non-binding surface, 384 well plates were supplied by Corning (#3574).
(§6) Method: Inhibition of ALDH1A3 was assessed using the NAD(P)H-Glo™ Detection System (Cat. No. G9062) from Promega. This assay detects the production of NADH from NAD by ALDH1A3 via the coupled enzymatic conversion of a proluciferin reductase substrate to generate a luminescent signal. Inhibition of ALDH1A3 by small molecule inhibitors will result in reduction or abrogation of luminescence signal increase above background. Inhibition of ALDH1A1, ALDH1A2 and ALDH2 (selectivity assays) were assessed using the same assay.
(§7) Compounds were dosed into Corning 384 well assay plates using an Echo acoustic dispenser to give 10 point curves in a 3-fold dilution series. Compounds were dispensed from a 20 mM DMSO stock and initially screened at a top concentration of 20 μM (ALDH1A3) or 250 μM (ALDH1A1, ALDH1A2 & ALDH2). […]

ALDH1A2 = biological target: T2, ALDH1A2 (Homo sapiens, UniProt O94788); assay: as above
T2 construct: His-tag; made in house; host or cells: E. coli Rosetta (DE3)
T2 sequence (O94788 1-518): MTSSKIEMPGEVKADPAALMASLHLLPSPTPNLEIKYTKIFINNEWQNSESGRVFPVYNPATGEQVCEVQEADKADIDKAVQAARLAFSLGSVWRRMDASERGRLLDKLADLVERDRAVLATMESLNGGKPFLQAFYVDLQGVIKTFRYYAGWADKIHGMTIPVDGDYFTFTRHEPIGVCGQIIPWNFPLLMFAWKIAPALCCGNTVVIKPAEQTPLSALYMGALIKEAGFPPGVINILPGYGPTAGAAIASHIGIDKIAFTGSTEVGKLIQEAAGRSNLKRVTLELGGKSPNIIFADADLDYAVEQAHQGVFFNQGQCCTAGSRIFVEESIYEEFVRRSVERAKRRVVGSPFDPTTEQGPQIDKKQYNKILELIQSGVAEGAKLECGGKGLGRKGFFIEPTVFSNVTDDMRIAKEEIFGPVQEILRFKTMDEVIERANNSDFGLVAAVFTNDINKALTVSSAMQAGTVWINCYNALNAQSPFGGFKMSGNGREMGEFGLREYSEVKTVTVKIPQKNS
Excerpt: as §1, §2, §3, §4, §5, §6, §7

Compound	IC50 (ALDH1A1)	IC50 (ALDH1A2)
O=C1CCc2cc(OCCN(CCO)Cc3cccc(F)c3)ccc2N1 [ALDHI-3002, 6-[2-[(3-fluorophenyl)methyl-(2-hydroxyethyl)amino]ethoxy]-3,4-dihydro-1H-quinolin-2-one]	≥ 100 µM	0.1 to 1 µM
C[C@H](c1ccccc1)N(CCO)CCOc1ccc2c(c1)CCC(=O)N2 [ALDHI-3006, 6-[2-[2-hydroxyethyl-[(1R)-1-phenylethyl]amino]ethoxy]-3,4-dihydro-1H-quinolin-2-one]	10 to 100 µM	1 to 10 µM
CC1Cc2cc(OCCN3CCCC3c3cccc(F)c3)ccc2NC1=O (stereo not shown) [ALDHI-2048, 6-[2-[2-(3-fluorophenyl)pyrrolidin-1-yl]ethoxy]-3-methyl-3,4-dihydro-1H-quinolin-2-one]	10 to 100 µM	0.1 to 1 µM
O=C1CCc2cc(NC(=O)c3scnc3-c3ccc(F)cc3)ccc2N1 [ALDHI-1017, 4-(4-fluorophenyl)-N-(2-oxo-1,2,3,4-tetrahydroquinolin-6-yl)thiazole-5-carboxamide]	≥ 100 µM	1 to 10 µM
O=C1CCc2cc(OCCN3CCCC3c3ccccc3F)ccc2N1 (stereo not shown) [ALDHI-2002, 6-[2-[2-(2-fluorophenyl)pyrrolidin-1-yl]ethoxy]-3,4-dihydro-1H-quinolin-2-one]	≥ 100 µM	10 to 100 µM
CCN(CC)CCN(CCOc1ccc2c(c1)CCC(=O)N2)Cc1ccccc1 [ALDHI-3004, 6-[2-[benzyl-[2-(diethylamino)ethyl]amino]ethoxy]-3,4-dihydro-1H-quinolin-2-one]	≥ 100 µM	1 to 10 µM
CCC1Oc2cc(OCCN3CCCC3c3cccc(F)c3)ccc2NC1=O (stereo not shown) [ALDHI-2045, 2-ethyl-7-[2-[2-(3-fluorophenyl)pyrrolidin-1-yl]ethoxy]-4H-1,4-benzoxazin-3-one]	≥ 100 µM	1 to 10 µM
O=C1CSc2cc(OCCN3CCCC3c3cccc(F)c3)ccc2N1 (stereo not shown) [ALDHI-2008, 7-[2-[2-(3-fluorophenyl)pyrrolidin-1-yl]ethoxy]-4H-1,4-benzothiazin-3-one]	≥ 100 µM	10 to 100 µM
O=C1CCc2cc(NC(=O)c3sc(N4CCOCC4)nc3-c3cccc(F)c3)ccc2N1 [ALDHI-1001, 4-(3-fluorophenyl)-2-morpholino-N-(2-oxo-3,4-dihydro-1H-quinolin-6-yl)thiazole-5-carboxamide]	≥ 100 µM	≥ 100 µM
CC1(c2cccc(F)c2)CCCN1CCOc1ccc2c(c1)CCC(=O)N2 (stereo not shown) [ALDHI-2037, 6-[2-[2-(3-fluorophenyl)-2-methyl-pyrrolidin-1-yl]ethoxy]-3,4-dihydro-1H-quinolin-2-one]	≥ 100 µM	0.1 to 1 µM
O=C1CCc2cc(NC(=O)c3scnc3-c3cccc(F)c3)ccc2N1 [ALDHI-1003, 4-(3-fluorophenyl)-N-(2-oxo-3,4-dihydro-1H-quinolin-6-yl)thiazole-5-carboxamide]	≥ 100 µM	1 to 10 µM
O=C1CCc2cc(OCCN3CCCC3c3cccc(F)c3)ccc2N1 (stereo not shown) [ALDHI-2001, 6-[2-[2-(3-fluorophenyl)pyrrolidin-1-yl]ethoxy]-3,4-dihydro-1H-quinolin-2-one]	≥ 100 µM	0.1 to 1 µM
O=C1CCc2cc(OCCN3CCCC3c3ccccn3)ccc2N1 (stereo not shown) [ALDHI-2006, 6-[2-[2-(2-pyridyl)pyrrolidin-1-yl]ethoxy]-3,4-dihydro-1H-quinolin-2-one]	≥ 100 µM	1 to 10 µM
O=C1CCc2cc(OCCN3CCC[C@H]3c3cccc(F)c3)ccc2N1 [ALDHI-2018, 6-[2-[(2S)-2-(3-fluorophenyl)pyrrolidin-1-yl]ethoxy]-3,4-dihydro-1H-quinolin-2-one]	≥ 100 µM	0.1 to 1 µM
CC1CN(CCOc2ccc3c(c2)CCC(=O)N3)C(c2ccccc2)CO1 (mixture of isomers) [ALDHI-2042, 6-[2-(2-methyl-5-phenyl-morpholin-4-yl)ethoxy]-3,4-dihydro-1H-quinolin-2-one]	10 to 100 µM	0.1 to 1 µM
O=C1CCc2cc(NC(=O)c3ncsc3-c3cccnc3)ccc2N1 [ALDHI-1010, N-(2-oxo-3,4-dihydro-1H-quinolin-6-yl)-5-(3-pyridyl)thiazole-4-carboxamide]	≥ 100 µM	1 to 10 µM
O=C1CSc2cc(OCCN3CCCC3c3cccnc3)ccc2N1 (stereo not shown) [ALDHI-2028, 7-[2-[2-(3-pyridyl)pyrrolidin-1-yl]ethoxy]-4H-1,4-benzothiazin-3-one]	≥ 100 µM	≥ 100 µM
O=C1CCc2cc(NC(=O)c3cncnc3-c3cccc(F)c3)ccc2N1 [ALDHI-1018, 4-(3-fluorophenyl)-N-(2-oxo-3,4-dihydro-1H-quinolin-6-yl)pyrimidine-5-carboxamide]	≥ 100 µM	–
O=C1CCc2cc(OCCN3CCCC3c3cccs3)ccc2N1 (stereo not shown) [ALDHI-2013, 6-[2-[2-(2-thienyl)pyrrolidin-1-yl]ethoxy]-3,4-dihydro-1H-quinolin-2-one]	≥ 100 µM	1 to 10 µM
CN(CCOc1ccc2c(c1)CCC(=O)N2)C(CO)c1cccc(F)c1 (stereo not shown) [ALDHI-3003, 6-[2-[[1-(3-fluorophenyl)-2-hydroxy-ethyl]-methyl-amino]ethoxy]-3,4-dihydro-1H-quinolin-2-one]	≥ 100 µM	1 to 10 µM
O=C1CCc2cc(NC(=O)c3scnc3-c3ccccc3Cl)ccc2N1 [ALDHI-1012, 4-(2-chlorophenyl)-N-(2-oxo-3,4-dihydro-1H-quinolin-6-yl)thiazole-5-carboxamide]	10 to 100 µM	–
O=C1CCCc2cc(OCCN3CCCC3c3cccc(F)c3)ccc2N1 (stereo not shown) [ALDHI-2020, 7-[2-[2-(3-fluorophenyl)pyrrolidin-1-yl]ethoxy]-1,3,4,5-tetrahydro-1-benzazepin-2-one]	≥ 100 µM	1 to 10 µM
O=C1CCc2cc(NC(=O)c3c[nH]nc3-c3cccc(F)c3)ccc2N1 [ALDHI-1006, 3-(3-fluorophenyl)-N-(2-oxo-1,2,3,4-tetrahydroquinolin-6-yl)-1H-pyrazole-4-carboxamide]	≥ 100 µM	–

Reference: patent publication US20240174634A1, “Aldehyde Dehydrogenase Inhibitors and Their Therapeutic Use” (priority 2020, published 2024)
